Assay results taken from the supplement of paper PMC10307832.

What was measured:
Assay in all cases: relative viability (nuclei count vs DMSO), 5 days (fraction); higher = more cells survive
[1] = test system: HCC-15
Procedure, shortened: (§1)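 One day after seeding in 1536-well plates, lung cancer cell lines were dosed by pin tool. Dosing was either single-drug or a fixed anchor-drug dose plus five library-drug doses (not always all listed) in √10 steps. After 5 days, nuclei were stained in one fix-and-stain step and counted on 4× images, and relative viability is the nuclei count of treated wells over that of vehicle wells, given as the median of duplicate plates.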

[2] = test system: NCI-H358
Procedure, shortened: as §1

[3] = test system: NCI-H1792
Procedure, shortened: as §1

[4] = test system: NCI-H23
Procedure, shortened: as §1

[5] = test system: NCI-H1437
Procedure, shortened: as §1

[6] = test system: NCI-H1793
Procedure, shortened: as §1

[7] = test system: NCI-H1755
Procedure, shortened: as §1

[8] = test system: COR-L23
Procedure, shortened: as §1

[9] = test system: NCI-H2342
Procedure, shortened: as §1

[10] = test system: PC-14
Procedure, shortened: as §1

[11] = test system: NCI-H2347
Procedure, shortened: as §1

[12] = test system: 201T
Procedure, shortened: as §1

[13] = test system: HCC-366
Procedure, shortened: as §1

[14] = test system: NCI-H1915
Procedure, shortened: as §1

[15] = test system: NCI-H2009
Procedure, shortened: as §1

[16] = test system: NCI-H1395
Procedure, shortened: as §1

[17] = test system: EMC-BAC-2
Procedure, shortened: as §1

[18] = test system: NCI-H650
Procedure, shortened: as §1

[19] = test system: NCI-H2023
Procedure, shortened: as §1

[20] = test system: COR-L 105
Procedure, shortened: as §1

[21] = test system: SK-MES-1
Procedure, shortened: as §1

[22] = test system: LC-2-ad
Procedure, shortened: as §1

CN1CCN(CCOc2cc(OC3CCOCC3)c3c(Nc4c(Cl)ccc5c4OCO5)ncnc3c2)CC1 [Saracatinib] + CC(=O)c1c(C)c2cnc(Nc3ccc(N4CCNCC4)cn3)nc2n(C2CCCC2)c1=O [Palbociclib] (partner 0.5 µM)
relative viability ([1]; first compound 0.02 µM): 0.763 | relative viability ([1]; first compound 0.2 µM): 0.677 | relative viability ([1]; first compound 0.6325 µM): 0.758 | relative viability ([1]; first compound 2 µM): 0.753 | relative viability ([2]; first compound 0.02 µM): 0.136 | relative viability ([2]; first compound 0.2 µM): 0.118 | relative viability ([2]; first compound 0.6325 µM): 0.127 | relative viability ([2]; first compound 2 µM): 0.0903 | relative viability ([3]; first compound 0.02 µM): 0.567 | relative viability ([3]; first compound 0.2 µM): 0.439 | relative viability ([3]; first compound 0.6325 µM): 0.781 | relative viability ([3]; first compound 2 µM): 0.55 | relative viability ([4]; first compound 0.02 µM): 0.526 | relative viability ([4]; first compound 0.6325 µM): 0.573 | relative viability ([4]; first compound 2 µM): 0.403 | relative viability ([5]; first compound 0.02 µM): 0.355 | relative viability ([5]; first compound 0.2 µM): 0.337 | relative viability ([5]; first compound 0.6325 µM): 0.455 | relative viability ([5]; first compound 2 µM): 0.308 | relative viability ([6]; first compound 0.02 µM): 0.363 | relative viability ([6]; first compound 0.2 µM): 0.311 | relative viability ([6]; first compound 0.6325 µM): 0.299 | relative viability ([6]; first compound 2 µM): 0.278 | relative viability ([7]; first compound 0.02 µM): 0.448 | relative viability ([7]; first compound 0.2 µM): 0.395 | relative viability ([7]; first compound 0.6325 µM): 0.45 | relative viability ([7]; first compound 2 µM): 0.435 | relative viability ([8]; first compound 0.02 µM): 0.278 | relative viability ([8]; first compound 0.2 µM): 0.301 | relative viability ([8]; first compound 0.6325 µM): 0.243 | relative viability ([8]; first compound 2 µM): 0.287 | relative viability ([9]; first compound 0.02 µM): 0.528 | relative viability ([9]; first compound 0.2 µM): 0.479 | relative viability ([9]; first compound 0.6325 µM): 0.524 | relative viability ([9]; first compound 2 µM): 0.545 | relative viability ([10]; first compound 0.02 µM): 0.471 | relative viability ([10]; first compound 0.2 µM): 0.217 | relative viability ([10]; first compound 0.6325 µM): 0.0934 | relative viability ([10]; first compound 2 µM): 0.0848 | relative viability ([11]; first compound 0.02 µM): 0.468 | relative viability ([11]; first compound 0.2 µM): 0.397 | relative viability ([11]; first compound 0.6325 µM): 0.428 | relative viability ([11]; first compound 2 µM): 0.432 | relative viability ([12]; first compound 0.02 µM): 0.358 | relative viability ([12]; first compound 0.2 µM): 0.311 | relative viability ([12]; first compound 0.6325 µM): 0.323 | relative viability ([12]; first compound 2 µM): 0.26 | relative viability ([13]; first compound 0.02 µM): 0.382 | relative viability ([13]; first compound 0.2 µM): 0.176 | relative viability ([13]; first compound 0.6325 µM): 0.272 | relative viability ([13]; first compound 2 µM): 0.164 | relative viability ([14]; first compound 0.02 µM): 0.488 | relative viability ([14]; first compound 0.2 µM): 0.468 | relative viability ([14]; first compound 0.6325 µM): 0.537 | relative viability ([14]; first compound 2 µM): 0.462 | relative viability ([15]; first compound 0.02 µM): 0.261 | relative viability ([15]; first compound 0.2 µM): 0.136 | relative viability ([15]; first compound 0.6325 µM): 0.201 | relative viability ([15]; first compound 2 µM): 0.136 | relative viability ([16]; first compound 0.02 µM): 0.606 | relative viability ([16]; first compound 0.2 µM): 0.562 | relative viability ([16]; first compound 0.6325 µM): 0.598 | relative viability ([16]; first compound 2 µM): 0.516 | relative viability ([17]; first compound 0.02 µM): 0.507 | relative viability ([17]; first compound 0.2 µM): 0.483 | relative viability ([17]; first compound 0.6325 µM): 0.517 | relative viability ([17]; first compound 2 µM): 0.511 | relative viability ([18]; first compound 0.02 µM): 0.336 | relative viability ([18]; first compound 0.2 µM): 0.314 | relative viability ([18]; first compound 0.6325 µM): 0.33 | relative viability ([18]; first compound 2 µM): 0.307 | relative viability ([19]; first compound 0.02 µM): 0.379 | relative viability ([19]; first compound 0.2 µM): 0.31 | relative viability ([19]; first compound 0.6325 µM): 0.282 | relative viability ([19]; first compound 2 µM): 0.19 | relative viability ([20]; first compound 0.02 µM): 0.384 | relative viability ([20]; first compound 0.2 µM): 0.332 | relative viability ([20]; first compound 0.6325 µM): 0.38 | relative viability ([20]; first compound 2 µM): 0.321 | relative viability ([21]; first compound 0.02 µM): 0.3 | relative viability ([21]; first compound 0.2 µM): 0.31 | relative viability ([21]; first compound 0.6325 µM): 0.309 | relative viability ([21]; first compound 2 µM): 0.256 | relative viability ([22]; first compound 0.02 µM): 0.571 | relative viability ([22]; first compound 0.2 µM): 0.448 | relative viability ([22]; first compound 0.6325 µM): 0.504 | relative viability ([22]; first compound 2 µM): 0.434
